This is an account of results in patent publication US20150057316A1, “NOVEL SULFONATE-BASED TRIMEBUTINE SALTS” (GICARE PHARMA INC., priority 2012, published 2015).

The test system of one data set is Caco-2 cells. The data set can be described thus: Caco-2 bidirectional permeability. It counts as in vitro ADME, human. The settings on record: for Efflux ratio: (Papp B − A)/(Papp A − B); for % Recovery A − B / Papp A − B: apical to basolateral; for % Recovery A − B / Papp A − B / % Recovery B − A / Papp B − A: 2-hr; for % Recovery B − A / Papp B − A: basolateral to apical; for Permeability: class from Papp A-B; for Significant Efflux: significant: efflux ratio above 3.0 and Papp B-A >1.0×10^−6 cm/s. An excerpt:
(§1) Such a procedure helps understanding the suitability of the compound for oral dosing by measuring the rate of transport of the molecule across the Caco-2 cells, which have characteristics that resemble intestinal epithelial cells. Transport in both directions (apical to basolateral (A-B) and basolateral to apical (B-A)) across the cell monolayer was monitored over a 2-hr time period in order to evaluate the efflux ratio, an indicator of whether the compound undergoes significant active efflux or not. The permeability coefficient (Papp) is calculated from the equation: […]
(§2) Where dQ/dt is the rate of permeation of the drug across the cells, Co is the donor compartment concentration at time zero and A is the area of the cell monolayer. Co is obtained from analysis of the dosing solution at the start of the experiment. The analysis method used was LCMS quantification.
(§3) A permeability of (Papp A-B)<1.0×10^−6 cm/s is considered low, whereas a permeability of (Papp A-B)>1.0×10^−6 cm/s is considered high. A significant efflux is generally associated with an efflux ratio above 3.0 and a (Papp B-A)>1.0×10^−6 cm/s in these assay conditions.

Data set [1] in a line: quantification of counter-ion and metabolites in urine and feces of rats. It counts as in vivo. The settings on record: 500 mg/kg p.o., 48 hr collection. The procedure:
A preliminary toxicological evaluation of the compound was done in 250-300 g male Sprague-Dawley rats. Animals were randomized into one of three dosing group, i.e. 250, 500 or 1,000 mg/kg administered by oral gavage. Following administration of the test article, animals were observed hourly for the first 8 hr post-dosing for clinical signs and twice daily thereafter until termination on Day 7. Three animals per group were sacrificed by exsanguination under general anesthesia at 24-hr post dosing or on Day 7 and a gross necropsy was performed in all animals. Additionally, all three rats having received the 500 mg/kg dose and scheduled for sacrifice on Day 7 were placed in individual metabolic cages immediately following test article administration, in order to collect feces and urine during 48 hr. Blood samples were collected terminally from each rat for hematology and serum chemistry evaluation.
After proper urine and feces samples preparation, trimebutine 3-thiocarbamoyl-benzenesulfonate and its two metabolites were assayed by HPLC-MS/MS (ESI-), in MRM mode. Calibration curves were prepared for each analyte, in both matrices (diluted blank urine and diluted blank feces).

A further data set deals with dog hepatocytes. The data set can be described thus: in-vitro metabolism over dog hepatocytes. Particulars: 10 μM, up to 120 min at 37° C.
The test system of another data set is rat hepatocytes. The data set can be described thus: in-vitro metabolism over rat hepatocytes. The settings on record: 10 μM, up to 120 min at 37° C.
The next data set deals with human hepatocytes. The data set can be described thus: in-vitro metabolism over human hepatocytes. The settings on record: 10 μM, up to 120 min at 37° C.
The conditions of data set [2]: cited from earlier work.
Data set [3] in a line: solid-state stability of trimebutine salts of carboxylic acids. Particulars: 1:1 molar ratio; salts dissociate with heat and/or time.
Data set [4] in a line: Caco-2 bidirectional permeability. In kind it is in vitro ADME, human. Particulars: human; for efflux ratio at 2 h: (Papp B − A)/(Papp A − B).
From the text: as §1, §2, §3
Background: Passage across Caco-2 layers is used to estimate intestinal permeability.

The subject of a further data set is Sprague-Dawley rats. The data set can be described thus: p.o. pharmacokinetic study in rats, toxicological assessment. In kind it is in vivo. Particulars: single dose of 230 and 460 mg/kg p.o. The procedure: In order to evaluate the absolute bioavailability of trimebutine 4-toluenesulfonate (Example 22), an in-vivo pharmacological study was carried out in 6 Sprague-Dawley rats, which were administered a single dose of 230 and 460 mg/kg of the compound by the oral gavage route (p.o.). During this study, assessments included mortality checks and clinical observations. Blood samples were also collected for pharmacokinetic evaluations at 10 time points.

A further data set relates to mu-opioid receptors. Particulars: cited from earlier work.
For another data set, the target named is kappa-opioid receptors (Cavia porcellus, UniProt P41144). Particulars: cited from earlier work.
For data set [5] the following is noted: 100 μM, 37° C.; simulated gastric fluid pH 1.2 up to 60 min, simulated intestinal fluid pH 6.8 and acetate buffer pH 5 up to 180 min. How it is done:
Pyridinium 3-thiocarbamoyl-benzenesulfonate and pyridinium 4-thiocarbamoyl-benzenesulfonate (100 μM) were separately incubated at 37° C. in simulated gastric fluid (pH 1.2; without pepsin) up to 60 min, in simulated intestinal fluid (pH 6.8, without procreatin) up to 180 min, and in acetate buffer (pH 5) up to 180 min. At time points of 0, 30, 60, 120 and 180 min, an aliquot of 10 μL of samples were removed and added into vials containing […] internal standard (labetalol) in a mixture of 25:75 acetonitrile:water. Samples were analyzed by HPLC-MS/MS (ESI-, MRM) to monitor disappearance of its counter-ion over the time.

Where [6] appears, read: Caco-2, apical to basolateral, 2-hr, read-out: % Recovery A − B.
The mark [7] stands for this setting: Caco-2, apical to basolateral, 2-hr, read-out: Papp A − B.
Where [8] appears, read: Caco-2, class from Papp A-B, read-out: Permeability.
[9] abbreviates: Caco-2, basolateral to apical, 2-hr.
The mark [10] stands for this setting: Caco-2, basolateral to apical, 2-hr, read-out: % Recovery B − A.

Where a name gives a salt, the structure may show the parent alone. Read-outs that look alike come from different tables or passages of the source.

Chain of kappa-opioid receptors (P41144 whole entry): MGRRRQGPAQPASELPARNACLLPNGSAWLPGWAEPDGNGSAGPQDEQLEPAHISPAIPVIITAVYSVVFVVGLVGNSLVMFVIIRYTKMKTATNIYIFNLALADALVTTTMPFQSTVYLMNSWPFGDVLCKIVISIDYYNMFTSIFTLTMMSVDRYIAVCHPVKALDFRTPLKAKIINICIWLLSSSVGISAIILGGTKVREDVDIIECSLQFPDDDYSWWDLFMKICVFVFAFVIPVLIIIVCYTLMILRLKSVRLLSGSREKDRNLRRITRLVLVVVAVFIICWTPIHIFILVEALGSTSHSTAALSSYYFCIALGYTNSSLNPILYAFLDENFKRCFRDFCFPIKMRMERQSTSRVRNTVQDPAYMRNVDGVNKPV
Description for dog hepatocytes: (§4) Human, dog and rat cryopreserved hepatocytes (Celsis-IVT; n=10 pooled donors) were thawed according to the recommended protocol of the cell provider. Cells were then diluted to 1 million viable cells per mL, plated in a 96-well plate (100 μL per well), and pre-incubated 20 min at 37° C. under 95:5 O2:CO2 atmosphere. Following addition of test compounds (10 μM; 1 μL of 1 mM stock solution (95:5 acetonitrile/DMSO) per well), cells were incubated with lid on up to 120 min at 37° C. under 95:5 O2:CO2 atmosphere. At time points 0, 15, 60 and 120 min, 100 μL of acetonitrile containing an internal standard (1 μM labetalol) was added to quench incubates, and the plate was centrifuged (5 min; 15K rpm). Supernatant was diluted 1:2 with water and analyzed by HPLC-MS/MS (ESI-). The MS2 scan mode was used instead of the MRM mode, in order to manually extract the Extracted Ion Current (EIC) of two potential metabolites: 3-cyanobenzenesulfonate and sodium 3-sulfobenzoate.
Description for human hepatocytes: as §4
Description for rat hepatocytes: as §4

Consider `NC(=S)c1cccc(S(=O)(=O)O)c1`, for which, in the data set on Caco-2 cells, the Efflux ratio turned out to be 1.2, the “% Recovery A − B” value stood at 63%, the “Papp A − B” value amounted to 2.8e-07 cm/s and the “% Recovery B − A” value stood at 82%. Further, in the data set with Caco-2 cells, the “Papp B − A” value amounted to 3.3e-07 cm/s, the Permeability entry is recorded as “Low (A permeability of (Papp A-B)<1.0×10^−6 cm/s is considered low)” and the “Significant Efflux” value is on record as “No”. Further, in data set [1], the “3-cyanobenzenesulfonate found in feces, share of administered dose” value is recorded as “about 4%”; the “3-sulfobenzoate found, share of administered dose” value is 0.3%; the “share of total counter-ion administered orally found in feces” value was “About 80%”; the “share of total counter-ion administered orally found in urine” value is recorded as ~20%. Besides, the metabolic stability entry in the data set on dog hepatocytes is “remained intact”. Besides, the metabolic stability entry with rat hepatocytes was “remained intact”. Further, in the data set on human hepatocytes, the metabolic stability entry is “remained intact”.

In the case of `CCC(COC(=O)c1cc(OC)c(OC)c(OC)c1)(c1ccccc1)N(C)C` (centres unmarked), in the data set on Caco-2 cells, the Efflux ratio is reported as 1.0, the “% Recovery A − B” value was 51%, the “Papp A − B” value was found to be 2.32e-05 cm/s and the “% Recovery B − A” value turned out to be 62%. Also, in the data set on Caco-2 cells, the “Papp B − A” value is 2.43e-05 cm/s and the Permeability result is “High (a permeability of (Papp A-B)>1.0×10^−6 cm/s is considered high)”.

`NC(=O)c1cccc(S(=O)(=O)O)c1` (as salt: potassium) registered a melting point of 223 °C.

Take `NC(=S)c1ccc(C(=O)O)cc1` [4-thiocarbamoylbenzoic acid]: in data set [2], the pKa is given as ~3.3. Moreover, in data set [3], the “stability of the trimebutine salt in the solid state” value is recorded as “unstable salt”.

Compound `O=S(=O)(O)c1ccccn1` [Example 7, 2-Pyridinesulfonic acid] registered a melting point of 131 °C.

On to `O=S(=O)(O)c1cccnc1` [Example 8, 3-Pyridinesulfonic acid], for which the melting point was 119 °C.

Regarding `N#Cc1cccc(S(=O)(=O)O)c1` [Example 14, 3-Cyano benzenesulfonic acid], the melting point turned out to be 129 °C.

For the compound `CCC(COC(=O)c1cc(OC)c(OC)c(OC)c1)(c1ccccc1)N(C)C` (centres unmarked) [Example 22, trimebutine 4-toluenesulfonate salt], in data set [4] (setting [6]), the recovery at 2 h is 58%. For the same compound, in data set [4] (setting [7]), the Papp A→B at 2 h was determined as 23.9 ×10⁻⁶ cm/s. For the same compound, in [4] (setting [8]), the Papp A→B at 2 h was > 1 ×10⁻⁶ cm/s. In data set [4] (Caco-2), the efflux ratio at 2 h was 0.9. The compound further registered a Papp B→A at 2 h in [4] (setting [9]) of 21.7 ×10⁻⁶ cm/s. In addition, in [4] (setting [10]), the recovery at 2 h was 76%. In the data set with Caco-2 cells, the Permeability result was “high” and the “Significant Efflux” value was “No”. Besides, in the data set on Sprague-Dawley rats, the bodyweight entry is listed as “no change in bodyweight”, the death result is on record as “no death reported” and the toxicity entry is listed as “no indication of any toxicity”.

Take `O=C([O-])c1cccc(S(=O)(=O)O)c1.[Na+]` [Sodium 3-sulfobenzoate, reference compound]: the values for the recovery at 2 h in data set [4] (setting [6]) and in [4] (setting [10]) were 93% and 115%, respectively. In addition, the figures for the Papp A→B at 2 h in data set [4] (setting [7]) and in data set [4] (setting [8]) were 0.59 ×10⁻⁶ cm/s and < 1 ×10⁻⁶ cm/s, respectively. The efflux ratio at 2 h in data set [4] (Caco-2) is 1. The compound further came in with a Papp B→A at 2 h in [4] (setting [9]) of 0.59 ×10⁻⁶ cm/s. Further, the “Significant Efflux” value in the data set with Caco-2 cells was “No”.

For the compound `CCC(COC(=O)c1cc(OC)c(OC)c(OC)c1)(c1ccccc1)N(C)C` (centres unmarked) [Trimebutine, 3,4,5-trimethoxybenzoic acid 2-(dimethylamino)-2-phenylbutylester], in data set [2], the pKa was ~6.25. The “affinity to mu-opioid receptors” value in the data set with mu-opioid receptors is recorded as “micromolar”. For the same compound, on kappa-opioid receptors, the “affinity to kappa-opioid receptors” value was “micromolar”. The metabolic stability entry in the data set on dog hepatocytes, with rat hepatocytes and with human hepatocytes was “capable of metabolizing trimebutine” each time.

As to `O=C(O)c1ccccc1` [benzoic acid], in [3], the “stability of the trimebutine salt in the solid state” value is reported as “unstable salt”.

Turning to “pyridinium 3-cyanobenzenesulfonate [Pyridinium 3-cyano-benzenesulfonate]”, in the data set on Caco-2 cells, the Efflux ratio is on record as 2.0, the “% Recovery A − B” value is 84%, the “Papp A − B” value was determined as 4.4e-07 cm/s and the “% Recovery B − A” value was 72%. In the data set with Caco-2 cells, the “Papp B − A” value came to 8.7e-07 cm/s, the Permeability entry is “Low (A permeability of (Papp A-B)<1.0×10^−6 cm/s is considered low)” and the “Significant Efflux” value is reported as “No”.

Regarding “pyridinium 4-thiocarbamoylbenzenesulfonate”, the “stability of counter-ion (disappearance over time)” value in [5] was “stable in all these media”. In the data set on Caco-2 cells, the “% Recovery A − B” value is on record as 106%, the “Papp A − B” value is <5.4e-07 cm/s, the “% Recovery B − A” value was 116% and the “Papp B − A” value was <6.8e-07 cm/s. In the data set with Caco-2 cells, the Permeability entry was “Low (A permeability of (Papp A-B)<1.0×10^−6 cm/s is considered low)” and the “Significant Efflux” value was “No”.

Usually melting point stands for the temperature, or range, at which the solid turns liquid. A word on the pKa: it is the negative logarithm of the acid dissociation constant. One may read the efflux ratio as the permeability from basolateral to apical divided by that in the opposite direction, in the common usage. The Papp B→A is how fast a substance crosses the layer from the basolateral side.
